According to US10611778B2, “Fused bicyclic inhibitors of menin-MLL interaction” (Janssen Pharmaceutica NV, priority 2016, dated 2020):
Values joined by “and” are separate entries in the source; they are usually repeats but may differ in a detail not shown here. Equal entries are not always repeated. Structures can show the parent of a compound that is named as a salt. Where two headings read alike, the source gives them in different places.

Assays:
[1] = target: T1, Menin/MLL (terbium chelate-labeled menin, FITC-MBM1 peptide) (Homo sapiens, UniProt O00255, T541A); assay: Menin/MLL homogenous time-resolved fluorescence (HTRF) assay; format: binding
T1 construct: Menin (a.a. 1-610-6×his tag) was labeled with terbium cryptate as follows
T1 sequence (O00255 with tags, fused parts or gaps T541A): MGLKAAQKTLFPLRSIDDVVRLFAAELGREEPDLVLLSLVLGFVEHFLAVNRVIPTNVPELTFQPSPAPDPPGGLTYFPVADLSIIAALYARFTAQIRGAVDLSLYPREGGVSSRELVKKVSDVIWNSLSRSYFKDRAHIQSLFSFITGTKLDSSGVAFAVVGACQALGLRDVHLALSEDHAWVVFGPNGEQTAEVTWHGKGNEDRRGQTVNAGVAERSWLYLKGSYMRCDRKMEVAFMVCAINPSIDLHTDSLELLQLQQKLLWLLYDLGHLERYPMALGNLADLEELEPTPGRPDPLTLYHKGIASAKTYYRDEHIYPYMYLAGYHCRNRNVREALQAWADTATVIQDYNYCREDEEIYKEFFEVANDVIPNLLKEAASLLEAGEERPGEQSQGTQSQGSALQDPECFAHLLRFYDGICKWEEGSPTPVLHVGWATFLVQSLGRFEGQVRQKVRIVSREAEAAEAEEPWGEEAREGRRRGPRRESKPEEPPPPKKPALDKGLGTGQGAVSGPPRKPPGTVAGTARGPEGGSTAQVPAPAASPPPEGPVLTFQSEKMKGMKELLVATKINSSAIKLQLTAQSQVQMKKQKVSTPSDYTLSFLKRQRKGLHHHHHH
In short: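 Compound preincubated 5 min with terbium-cryptate-labeled menin (aa 1-610, His-tagged; 100 pM final), then 75 nM FITC-MBM1 peptide added, 15 min at ambient temperature; 0.5% DMSO, Tris pH 7.5 buffer. HTRF ratio 520/490 nm; % inhibition vs saturating competitor, IC50 from 11-point three-fold titration from 31 μM.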

MV-4-11 = assay: Proliferation assay (spheroid assay) MV-4-11; format: cell-based, human
In short: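 Cells were grown as spheroids in ultra-low attachment round-bottom wells with compound (0.3% DMSO) for 8 d at 37 °C, imaged every 4 h, with confluence as spheroid size. AUC of confluence versus time (t=0 baseline) was expressed as % of DMSO control, and absolute IC50 came from a least-squares nonlinear fit.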

MOLM14 = assay: Proliferation assay (spheroid assay) MOLM14; format: cell-based, human; details: Homo sapiens
Procedure: (§1) The anti-proliferative effect of menin/MLL protein/protein interaction inhibitor test compounds was assessed in human leukemia cell lines. The cell lines MV-4-11 and MOLM14 harbor MLL translocations and express the MLL fusion proteins MLL-AF4 and MLL-AF9, respectively, as well as the wildtype protein from the second allele. […] K562 and KG1 were used as a control cell lines containing two MLL wildtype alleles in order to exclude compounds that display general cytotoxic effects.
(§2) MV-4-11 and MOLM14 were cultured in RPMI-1640 (Sigma Aldrich) supplemented with 10% fetal bovine serum (HyClone), 2 mM L-glutamine (Sigma Aldrich) and 50 μg/ml gentamycin (Gibco). K562 were propagated in RPMI-1640 (Sigma Aldrich) supplemented with 20% fetal bovine serum (HyClone), 2 mM L-glutamine (Sigma Aldrich) and 50 μg/ml gentamycin (Gibco). KG1 were cultured in Iscove's MDM (Gibco) supplemented with 20% fetal bovine serum (HyClone), 2 mM L-glutamine (Sigma Aldrich) and 50 μg/ml gentamycin (Gibco).
(§3) In order to assess the anti-proliferative effects, 1,500 MV-4-11, 300 MOLM14, 750 K562 or 1,300 KG1 cells were seeded in 200 μl media per well in 96-well round bottom, ultra-low attachment plates (Costar, catalogue number 7007). Cell seeding numbers were chosen based on growth curves to ensure linear growth throughout the experiment. Test compounds were added at different concentrations and the DMSO content was normalized to 0.3%. Cells were incubated for 8 d at 37° C. and 5% CO2. Spheroid like growth was monitored in real-time by live-cell imaging (IncuCyteZOOM, Essenbio, 4× objective) acquiring one image every four hours for 8 d. Confluence (%) as a measure of spheroid size was determined using an integrated analysis tool.
(§4) In order to determine the cumulative effect of the test compounds over time, the area under the curve (AUC) in a plot of confluence against time was calculated. Confluence at the beginning of the experiment (t=0) was used as baseline for the AUC calculation.
(§5) Absolute IC50 values were calculated according to the following procedure: % Control=(AUC sample/AUC control)*100
(§6) AUC control=mean AUC of control values (cells without compound/DMSO as vehicle control)
(§7) A non-linear curve fit was applied using the least squares (ordinary) fit method to the plot of % control versus compound concentration. Based on this, the absolute IC50 value (half maximal inhibitory concentration of the test compound causing an anti-proliferative effect of 50% relative to the vehicle control) was calculated.

K562 = assay: Proliferation assay (spheroid assay) K562 control cell line; format: cell-based; details: Homo sapiens
Procedure: as §1, §2, §3, §4, §5, §6, §7

[2] = target: T2, Menin/MLL (menin, FITC-MBM1 peptide) (Homo sapiens, UniProt O00255, T541A); assay: Menin/MLL fluorescence polarization (FP) assay; format: binding; details: averaged values over all measurements; read-out: Menin FP assay (IC50)
T2 construct: 6xHis (C)
T2 sequence (O00255 with tags, fused parts or gaps T541A): T1 sequence (O00255 with tags, fused parts or gaps T541A)
Procedure: Pharmacological Part 1) Menin/MLL Fluorescence Polarization Assay
To a non-surface binding, black 384-well microtiter plate was added 50 nL 160× test compound in DMSO and 4 μL 2× menin in assay buffer (40 mM Tris-HCl, pH 7.5, 50 mM NaCl, 1 mM DTT and 0.001% Tween 20). After incubation of test compound and menin for 10 min at ambient temperature, 4 μL 2×FITC-MBM1 peptide (FITC-β-alanine-SARWRFPARPGT-NH2) in assay buffer was added, the microtiter plate centrifuged at 1000 rpm for 1 min and the assay mixtures incubated for 15 min at ambient temperature. The relative amount of menin: FITC-MBM1 complex present in an assay mixture is determined by measuring the fluorescence polarization (FP) of the FITC label with a BMG Pherastar plate reader (ex. 485 nm/em. 520 nm) at ambient temperature. The final concentrations of reagents in the binding assay are 100 nM menin, 5 nM FITC-MBM1 peptide and 0.625% DMSO in assay buffer. Dose-response titrations of test compounds are conducted using an 11 point, three-fold serial dilution scheme, starting at 31 μM.
Compound potencies were determined by first calculating % inhibition at each compound concentration according to equation 1: % inhibition=((HC−LC)−(FP^compound−LC))/(HC−LC))*100 (Eqn 1)
Where LC and HC are the FP values of the assay in the presence or absence of a saturating concentration of a compound that competes with FITC-MBM1 for binding to menin, and FP^compound is the measured FP value in the presence of the test compound. HC and LC FP values represent an average of at least 16 replicates per plate.
Where Bottom and Top are the lower and upper asymptotes of the dose-response curve, respectively, IC50 is the concentration of compound that yields 50% inhibition of signal and h is the Hill coefficient.

KG1 = assay: Proliferation assay (spheroid assay) KG1 control cell line; format: cell-based; details: Homo sapiens, KG-1, averaged values over all measurements
Procedure: as §1, §2, §3, §4, §5, §6, §7

[3] = averaged values over all measurements, read-out: Menin HTRF assay (IC50)
[4] = MOLM-14, MOLM14, averaged values over all measurements, read-out: Spheroid assay MOLM14 (IC50)
[5] = K562 control cell line, averaged values over all measurements, read-out: Spheroid assay K562 (IC50)
[6] = Homo sapiens, MV4-11, MV-4-11, averaged values over all measurements, read-out: Spheroid assay MV-4-11 (IC50)

Row | Structure (SMILES) | melting point | IC50 [1, 3] | IC50 (MOLM14; [4]) | IC50 (K562; [5]) | IC50 (MV-4-11; [6]) | other results
1 | O=S(=O)(c1ccccc1)N1CC[C@@H]2CN(c3ncnc4sc(CC(F)(F)F)cc34)CC[C@@H]21 (as salt: HCl) (hydrate or solvate) [Compound 16] | 152 °C | – | – | – | – | –
2 | FC(F)(F)Cc1cc2c(N3CCC4C(CCN4Cc4ncc[nH]4)C3)ncnc2s1 (stereo not shown) (as salt: HCl) [Compound 22] | 140 °C | – | – | – | – | –
3 | CC(C)CN1CCC2CN(c3ncnc4sc(CC(F)(F)F)cc34)CCC21 (stereo not shown) (as salt: HCl) [Compound 25] | 140 °C | – | – | – | – | –
4 | [2H]C([2H])(c1ccccc1)N1CC[C@@H]2CN(c3ncnc4sc(CC(F)(F)F)cc34)CC[C@@H]21 (single isomer, unassigned) [Compound 5] | – | – | – | – | – | IC50 ([1]; individual measurements (not averaged), read-out: (3) Menin HTRF assay (IC50 (nM))): 9 nM; IC50 (MV-4-11; MV-4-11, 8 d, individual measurements (not averaged), read-out: (2) Spheroid assay MV-4-11 (IC50 (μM))): 2.1 µM and > 15 µM; IC50 (MOLM14; MOLM-14, 192 h, MOLM14, 8 d, individual measurements (not averaged), read-out: (2) Spheroid assay MOLM14 (IC50 (μM))): 4.3 µM; IC50 (K562; 192 h, K562, 8 d, individual measurements (not averaged), read-out: (2) Spheroid assay K562 (IC50 (μM))): > 15 µM
5 | Fc1ccccc1CN1CC[C@@H]2CN(c3ncnc4sc(CC(F)(F)F)cc34)CC[C@@H]21 (single isomer, unassigned) [Compound 7] | – | 510 nM | 14.6 µM | > 15 µM | – | IC50 [2]: 630 nM
6 | CC(C)(C)OC(=O)N1CCC(CN2CC[C@@H]3CN(c4ncnc5sc(CC(F)(F)F)cc45)C[C@@H]3C2)CC1 (single isomer, unassigned) [Compound 20] | – | 31 nM | 0.98 µM | > 15 µM | 0.38 µM | –
7 | FC(F)(F)Cc1cc2c(N3C[C@@H]4CCN(Cc5ccccc5)C[C@@H]43)ncnc2s1 (single isomer, unassigned) [Compound 30] | 140 °C | ~1260 nM | – | – | – | –
8 | FC(F)(F)Cc1cc2c(N3C[C@H]4CCN(Cc5ccccc5)C[C@H]43)ncnc2s1 (single isomer, unassigned) [Compound 31] | 150 °C | 1080 nM | – | – | – | –
9 | FC(F)(F)Cc1cc2c(N3C[C@@H]4CN(Cc5ccccc5)C[C@@H]43)ncnc2s1 [Compound 29] | 134 °C | 3450 nM | – | – | – | –

More lines, main results first:

Row | melting point | IC50 [1, 3] | IC50 (MOLM14; [4]) | IC50 (K562; [5]) | IC50 (MV-4-11; [6]) | Structure (SMILES) | other results
10 | – | 15 nM | 1.4 µM | > 15 µM | 0.22 µM | CC(C)CN1CC[C@@H]2CN(c3ncnc4sc(CC(F)(F)F)cc34)C[C@@H]2C1 (single isomer, unassigned) [Compound 36] | IC50 (KG1): > 15000 nM
11 | – | 25 nM | 0.77 µM | – | 0.55 µM | FC(F)(F)Cc1cc2c(N3C[C@H]4CCN(Cc5ccncc5)C[C@H]4C3)ncnc2s1 (single isomer, unassigned) [Compound 64] | IC50 (KG1): 8400 nM
12 | – | 27 nM | 3.2 µM | – | 0.32 µM | O=c1ccc(CN2CC[C@@H]3CN(c4ncnc5sc(CC(F)(F)F)cc45)C[C@@H]3C2)c[nH]1 (single isomer, unassigned) [Compound 67] | IC50 (KG1): > 15000 nM
13 | 109 °C | 57 nM | – | – | 1.8 µM | CC(C)CN1CC[C@H]2CN(c3ncnc4sc(CC(F)(F)F)cc34)C[C@H]2C1 (single isomer, unassigned) [Compound 69] | –
14 | – | 24 nM | 2 µM | > 15 µM | 0.28 µM | FC(F)(F)Cc1cc2c(N3C[C@H]4CCN(CC5CCNCC5)C[C@H]4C3)ncnc2s1 (single isomer, unassigned) [Compound 70B] | –
15 | 160 °C | 18 nM | 1.4 µM | > 15 µM | 0.56 µM | FC(F)(F)Cc1cc2c(N3C[C@H]4CCN(CC5CCOCC5)C[C@H]4C3)ncnc2s1 (single isomer, unassigned) [Compound 70] | IC50 (KG1): > 15000 nM
16 | – | 54 nM | 2.2 µM | > 15 µM | 0.42 µM | Cn1cc(CN2CC[C@H]3CN(c4ncnc5sc(CC(F)(F)F)cc45)C[C@H]3C2)cn1 (single isomer, unassigned) [Compound 71B] | IC50 (KG1): > 15000 nM
17 | 112 °C | 410 nM | – | – | 5.7 µM | O=C([C@@H]1CC2(CC2)CN1)N1CC[C@@H]2CN(c3ncnc4sc(CC(F)(F)F)cc34)C[C@@H]2C1 (single isomer, unassigned) [Compound 81] | –
18 | 105 °C | 653 nM | – | – | 7.9 µM | O=C([C@@H]1CC2(CC2)CN1)N1CC[C@H]2CN(c3ncnc4sc(CC(F)(F)F)cc34)C[C@H]2C1 (single isomer, unassigned) [Compound 82] | –
